{"source": "patent US20130152233A1", "about": "“5-FLUOROCYTOSINE AS A SEED TREATMENT AGENT TO CONTROL PLANT DISEASE” (Dow AgroSciences LLC, priority 2011, published 2013)", "tested_on": "Mycosphaerella graminicola; anamorph: Septoria tritici; Bayer code SEPTTR", "assay": "Fungicidal activity as a seed treatment for leaf blotch of wheat (SEPTTR), treated 'Yuma' wheat seeds", "assay_type": "in vivo", "experimental": "Evaluation of Fungicidal Activity as a Seed Treatment for Leaf Blotch of Wheat (Mycosphaerella graminicola; anamorph: Septoria tritici; Bayer code […]) Seeds of wheat variety 'Yuma' were treated with a 1% weight-to-volume (w/v) solution of 5-fluorocytosine in water at rates of 16.5, 5.5, 1.8, and 0 grams of active ingredient per 100 kilograms (g ai/100 kg) of seeds. A red dye and a polymer blend were included in the formulation as inert ingredients. Seeds were allowed to dry thoroughly and were sown 3 days (trial 1) or 5 weeks (trials 2 and 3) after treatment. Seeds (10-12 seeds/pot) were planted in 4 square inch pots containing 50% mineral soil/50% soil-less Metro mix. Eleven-day-old seedlings were inoculated with an aqueous spore suspension of Septoria tritici, and 6-10 pots of plants were inoculated for each fungicide rate. After inoculation, plants were kept in 100% relative humidity three days to allow establishment of infection. The plants were then transferred to a greenhouse until disease developed. When disease on untreated plants was fully expressed , disease severities on treated plants were assessed. […] Trial 1 was the average of 10 pots of plants; Trial 2 was the average of 6 pots of plants; and Trial 3 was the average of 6 pots of plants placed in weigh boats in order to prevent possible loss of the 5-fluorocytosine from soil leaching. The following tables include data showing the activity of 5-fluorocytosine when evaluated in these experiments. The effectiveness of 5-fluorocytosine in controlling disease was determined by assessing the severity of disease on treated plants, then converting the severity to percent control based on the level of disease on untreated, inoculated plants.", "data": [{"compound": "Nc1nc(=O)[nH]cc1F", "note": "[5-fluorocytosine]", "values": [{"measurement": "% Disease control (SEPTTR)", "setting": "Trial 1, 1.8 g ai/100 kg seeds, sown 3 days after treatment, average of 10 pots", "result": "D (1-25)"}, {"measurement": "% Disease control (SEPTTR)", "setting": "Trial 1, 5.5 g ai/100 kg seeds, sown 3 days after treatment, average of 10 pots", "result": "C (26-50)"}, {"measurement": "% Disease control (SEPTTR)", "setting": "Trial 1, 16.5 g ai/100 kg seeds, sown 3 days after treatment, average of 10 pots", "result": "A (76-100)"}, {"measurement": "% Disease control (SEPTTR)", "setting": "Trial 2, 1.8 g ai/100 kg seeds, sown 5 weeks after treatment, average of 6 pots", "result": "C (26-50)"}, {"measurement": "% Disease control (SEPTTR)", "setting": "Trial 2, 5.5 g ai/100 kg seeds, sown 5 weeks after treatment, average of 6 pots", "result": "A (76-100)"}, {"measurement": "% Disease control (SEPTTR)", "setting": "Trial 2, 16.5 g ai/100 kg seeds, sown 5 weeks after treatment, average of 6 pots", "result": "A (76-100)"}, {"measurement": "% Disease control (SEPTTR)", "setting": "Trial 3, 1.8 g ai/100 kg seeds, sown 5 weeks after treatment, 6 pots in weigh boats", "result": "C (26-50)"}, {"measurement": "% Disease control (SEPTTR)", "setting": "Trial 3, 5.5 g ai/100 kg seeds, sown 5 weeks after treatment, 6 pots in weigh boats", "result": "A (76-100)"}, {"measurement": "% Disease control (SEPTTR)", "setting": "Trial 3, 16.5 g ai/100 kg seeds, sown 5 weeks after treatment, 6 pots in weigh boats", "result": "A (76-100)"}, {"measurement": "control of SEPTTR (in words)", "setting": "test rate of 16.5 g ai/100 kg seeds", "result": "significant level of control"}]}]}
